Data taken from US20100024572A1, “POLYMER NEMS FOR CELL […] MICRO[…] P[…] FOR MICRO-BIOCALORIMETER” (CALIFORNIA INSTITUTE OF TECHNOLOGY, priority 2006, published 2010).

Test system: individual adherent cells
Assay: Force measurement from a single adherent cell on microfluidic embedded polymer NEMS force sensor
Assay type: cell-based
Conditions: 200 pN force resolution, 10 ms time resolution
Excerpt: Successful micro-fluidic encapsulation is routine and consistently performed at very high yields, (>90%). The force sensing capabilities of the devices have been tested and calibrated by perturbing the force sensors with glass micro-needles mounted on piezo-electric actuators, data shown in FIG. 6A. The force sensors have been tested in micro-fluidics be measuring their response to shear forces generated by fluid flow. The force sensors have been successfully used to measure forces exerted by individual adherent cells and to study the mechanical response of those cells to cytoskeleton perturbing reagents such as Cytochalasin D.
Such measurements were performed with 200 pN force resolution—an improvement of 25 fold over prior art—and 10 ms time resolution—and improvement of 300 fold over prior art.
These measurements were performed with 200 pN force resolution—an improvement of 25 fold over prior art—and 10 ms time resolution—and improvement of 300 fold over prior art.

C=C1[C@@H](C)[C@H]2[C@H](Cc3ccccc3)NC(=O)[C@]23[C@H](OC(C)=O)/C=C/[C@@](C)(O)C(=O)[C@@H](C)C/C=C/[C@H]3[C@@H]1O [Cytochalasin D]
force exerted by a single cell (force vs. time) when Cytochalasin D is removed (after removal of Cytochalasin D): recovery of the force
force exerted by a single cell (force vs. time) when Cytochalasin D is introduced (stable force in growth media before): collapse of that force
